Experimental data published in US5132328A, “Alcohol and ether derivatives” (Imperial Chemical Industries PLC, priority 1988, dated 1992).

Legend:
[1] = target: T1, 5-LO (Rattus norvegicus, UniProt P12527); assay: Test (c): ex vivo assay after (usually oral) administration, blood challenged with A23187, LTB4 radioimmunoassay; assay type: in vivo
T1 construct: blood collection, heparinisation, challenge with A23187 and radioimmunoassay of LTB4 and TxB2; endogenous in cells
T1 sequence (P12527 1-673): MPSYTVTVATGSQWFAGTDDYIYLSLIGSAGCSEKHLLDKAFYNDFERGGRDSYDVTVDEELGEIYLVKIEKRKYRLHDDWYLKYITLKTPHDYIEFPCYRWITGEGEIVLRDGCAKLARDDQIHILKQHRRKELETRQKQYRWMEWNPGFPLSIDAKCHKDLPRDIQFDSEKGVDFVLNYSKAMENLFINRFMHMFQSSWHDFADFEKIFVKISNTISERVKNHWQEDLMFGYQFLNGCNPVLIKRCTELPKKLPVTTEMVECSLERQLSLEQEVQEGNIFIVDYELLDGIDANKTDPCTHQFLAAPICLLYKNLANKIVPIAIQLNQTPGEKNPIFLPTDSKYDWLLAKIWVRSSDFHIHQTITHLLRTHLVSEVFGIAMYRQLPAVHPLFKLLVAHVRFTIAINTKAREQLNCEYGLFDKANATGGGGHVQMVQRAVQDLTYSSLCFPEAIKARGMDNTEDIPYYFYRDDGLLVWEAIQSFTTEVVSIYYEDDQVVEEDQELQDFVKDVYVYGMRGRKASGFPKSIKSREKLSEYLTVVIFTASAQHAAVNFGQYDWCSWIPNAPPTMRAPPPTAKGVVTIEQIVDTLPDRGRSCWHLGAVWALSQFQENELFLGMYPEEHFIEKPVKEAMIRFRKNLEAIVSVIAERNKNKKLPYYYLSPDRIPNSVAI
Method: (c) An ex vivo assay system, which is a variation of test b) above, involving administration of a test compound (usually orally as the suspension produced when a solution of the test compound in dimethylsulphoxide is added to carboxymethylcellulose), blood collection, heparinisation, challenge with A23187 and radioimmunoassay of LTB4 and TxB2. This test provides an indication of the bioavailability of a test compound as an inhibitor of 5-LO or cyclooxygenase.

[2] = target: T2, cyclooxygenase (Homo sapiens, UniProt P23219); assay: Test (b): heparinised human blood challenged with A23187, TxB2 radioimmunoassay; assay type: cell-based
T2 construct: heparinised human blood, prior to challenge with the calcium ionophore A23187; endogenous in cells; host or cells: heparinised human whole blood (platelets and other blood cells, A23187-challenged)
Method: (§1) (b) An in vitro assay system involving incubating a test compound with heparinised human blood, prior to challenge with the calcium ionophore A23187 and then indirectly measuring the inhibitory effects on 5-LO by assaying the amount of LTB4 using the specific radioimmunoassay described by Carey and Forder (F. Carey and R. A. Forder, Brit. J. Pharmacol. 1985, 84, 34P) which involves the use of a protein-LTB4 conjugate produced using the procedure of Young et alia (Prostaglandins, 1983, 26(4), 605-613). The effects of a test compound on the enzyme cyclooxygenase (which is involved in the alternative metabolic pathway for arachidonic acid and gives rise to prostaglandins, thromboxanes and related metabolites) may be measured at the same time using the specific radioimmunoassay for thromboxane B2 (TxB2) described by Carey and Forder (see above). This test provides an indication of the effects of a test compound against 5-LO and also cyclooxygenase in the presence of blood cells and proteins. It permits the selectivity of the inhibitory effect on 5-LO or cyclooxygenase to be assessed.

[3] = target: T3, 5-LO (Homo sapiens, UniProt P09917); assay: Test (b): heparinised human blood challenged with A23187, LTB4 radioimmunoassay; assay type: cell-based
T3 construct: heparinised human blood, prior to challenge with the calcium ionophore A23187; endogenous in cells; host or cells: heparinised human whole blood (blood cells, A23187-challenged)
T3 sequence (P09917 1-674): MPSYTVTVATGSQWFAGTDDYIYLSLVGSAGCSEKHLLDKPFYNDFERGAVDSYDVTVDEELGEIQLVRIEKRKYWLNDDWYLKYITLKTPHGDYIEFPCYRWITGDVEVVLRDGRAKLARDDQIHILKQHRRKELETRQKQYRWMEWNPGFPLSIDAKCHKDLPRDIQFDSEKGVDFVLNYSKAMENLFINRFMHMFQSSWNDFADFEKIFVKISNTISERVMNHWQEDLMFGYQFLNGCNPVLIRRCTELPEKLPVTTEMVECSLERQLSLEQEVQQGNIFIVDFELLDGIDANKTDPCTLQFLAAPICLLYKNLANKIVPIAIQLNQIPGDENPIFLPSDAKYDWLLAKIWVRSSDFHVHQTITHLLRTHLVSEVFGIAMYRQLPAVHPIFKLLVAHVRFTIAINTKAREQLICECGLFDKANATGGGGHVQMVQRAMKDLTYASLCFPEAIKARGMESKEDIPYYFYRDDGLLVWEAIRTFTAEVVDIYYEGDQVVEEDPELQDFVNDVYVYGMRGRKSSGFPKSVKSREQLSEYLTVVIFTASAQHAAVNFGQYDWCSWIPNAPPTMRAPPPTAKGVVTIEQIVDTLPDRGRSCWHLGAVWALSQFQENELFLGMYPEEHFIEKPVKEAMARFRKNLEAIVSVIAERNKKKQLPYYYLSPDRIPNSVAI
Method: as §1

T2 sequence (P23219 24-599): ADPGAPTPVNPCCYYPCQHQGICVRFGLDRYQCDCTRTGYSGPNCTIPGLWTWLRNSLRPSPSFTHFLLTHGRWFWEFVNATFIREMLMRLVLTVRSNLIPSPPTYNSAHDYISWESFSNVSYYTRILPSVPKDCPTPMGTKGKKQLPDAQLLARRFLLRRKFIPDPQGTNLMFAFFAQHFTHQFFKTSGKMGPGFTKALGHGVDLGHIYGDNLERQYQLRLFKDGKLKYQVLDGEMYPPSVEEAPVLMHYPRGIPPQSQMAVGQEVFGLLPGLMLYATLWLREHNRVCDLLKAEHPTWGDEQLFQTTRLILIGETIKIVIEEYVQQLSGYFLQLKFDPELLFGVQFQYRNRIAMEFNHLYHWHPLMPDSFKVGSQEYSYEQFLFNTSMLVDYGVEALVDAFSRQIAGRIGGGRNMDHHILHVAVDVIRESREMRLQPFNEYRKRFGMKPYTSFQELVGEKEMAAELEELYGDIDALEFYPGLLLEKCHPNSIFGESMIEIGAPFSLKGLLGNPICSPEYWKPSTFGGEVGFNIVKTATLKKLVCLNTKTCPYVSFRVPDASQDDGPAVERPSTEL

ED50 [1]: 30 mg/kg | IC50 [2]: > 40000 nM | IC50 [3]: 500 nM
SMILES: CCC(COC)(OC)c1cccc(OCc2ccc3ccccc3c2)c1 (stereo not drawn) [2-methoxy-2-[3-(naphth-2-ylmethoxy)phenyl]but-1-yl methyl ether]
